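Step 1: Grow cells in 96-well plates. Step 2: Expose to compound for 48 hours at 5 concentrations. Step 3: Interpolate endpoints linearly; if unreached, use highest concentration. The concentration for 50% growth inhibition is given as GI50. TGI: total growth inhibition.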
System: MDA-MB-468 breast
Assay: growth of human tumour cells (NCI), 48 h

Row | Compound | GI50 [µM] | TGI [µM]
1 | CCCCCCCCc1ccc(CCC(N)(CO)CO)cc1 | 1.63 | 3.05
2 | COc1ccc(C2CC(c3cccc(OC)c3)=NN2C(=O)c2cc(OC)c(OC)c(OC)c2)cc1 (stereo unspecified) | 0.484 | > 100
3 | O=C(O)c1cc2cc(O)ccc2[nH]1 | > 100 | > 100
4 | CC(=O)OC1CC2(O)C(CCC3(C)C(c4ccc(=O)oc4)CCC32O)C2(C)CCC(OC3OC(CO)C(O)C(O)C3O)C=C12 (stereo unspecified) | 0.0611 | 0.338
5 | c1ccc2c(-c3cnn4cc(-c5ccc(N6CCNCC6)cc5)cnc34)ccnc2c1 | 0.335 | 1.54
6 | CC(C)c1ccc(/C=N/N=C(N)N)cc1 | 1.85 | 5.07
7 | Clc1ccc(-c2nc(C(Cl)Cl)nc3cc(-c4ccccc4)nn23)cc1 | 0.772 | 2.15
8 | CCOC(=O)Nc1ccc(C(=O)/C=C/c2ccccc2)cc1 | 25.2 | > 100
9 | COC(=O)c1ccc(NC(N)=NCC(C)(C)COc2ccc(C(F)(F)F)cc2)nc1 | 1.06 | 2.73
10 | C=C1[C@@H](O)C[C@H]2C(C)(C)C[C@H](Cl)C[C@]2(C)[C@H]1C[C@H](O)[C@H]1CC(=O)NC1=O | 0.0138 | 0.124
11 | CC(=O)[O][Hg][CH2]C1(C)COC(C)([CH2][Hg][O]C(C)=O)CO1 (stereo unspecified) | 1.97 | 4.12
12 | O=C1c2ccccc2C(=O)c2sc(Nc3ccc(Cl)cc3)nc21 | 1.98 | 4.68
13 | CC(=O)Oc1ccccc1C(=O)NCCC[Se]C#N | 3.19 | 15.6
14 | CCOc1ccc(NC(=O)c2cc3ccccc3cc2O)cc1 | 64.6 | > 100
15 | C=C1C(=O)O[C@H]2[C@H]1CC/C(COC(=O)C(=O)c1c[nH]c3ccc(Cl)cc13)=C\CC[C@@]1(C)O[C@@H]21 | 0.353 | 1.06
16 | CNC12C3C4C1C1C2C3C41C(=O)N[C@H](C(=O)N(C)[C@H](C[C@@H](OC(C)=O)c1nc(C(=O)N[C@@H](Cc2ccccc2)C[C@H](C)C(=O)OC)cs1)C(C)C)C1CC1 (stereo partly specified) | 0.0705 | 1.37
17 | OCc1ncc(-c2ccccc2)s1 | > 100 | > 100
18 | COc1cc2oc(-c3cccc(C(=O)Nc4ccc(C)cc4)c3)cc(=O)c2c(OC)c1OC | 3.88 | 24.6
19 | CNC(C)[C@H]1CCC2C3CCC4C[C@@H](N(C)C(=O)c5ccccc5)CC[C@]4(C)C3CC[C@@]21C (stereo partly specified) | 0.854 | 2.72

Row | Compound | GI50 [µM] | TGI [µM]
20 | O=C(NCCNC(=O)c1ccc(F)cc1)Nc1ccc(-n2cc(-c3ccncc3)c(-c3ccc(Cl)c(O)c3)n2)cc1 | 0.297 | 1.65
21 | C[n+]1cc2cc3c(cc2c2ccccc21)OCO3 | 0.503 | 3.45
22 | Cc1nc2ccccc2c(/C=C/c2ccccc2)c1C(=O)/C=C/c1ccc(Cl)cc1 | 1.56 | 3.15
23 | O=C(c1ccccc1)c1ccc(O)c2ncccc12 | 2.41 | 7.75
24 | N=C1N=C(N)S/C1=C\c1ccc2ncccc2c1 | > 25 | > 25
25 | N#CSCC1CC(O)(c2ccccc2)CC(c2ccc(Cl)cc2)O1 (stereo unspecified) | 5.07 | 12.9
26 | COc1ccc(Nc2ncc(-c3ccccc3)o2)cc1OC | > 11.6 | > 25
27 | CC1=C/C(O)CC(=O)Cc2nc(co2)C(=O)N2CCC=C2C(=O)OC(C(C)C)C(C)/C=C\C(=O)NC/C=C\1 (stereo unspecified) | 11.4 | 27.5
28 | C#C[C@]1(O)CC[C@H]2[C@@H]3CC=C4c5sc(-c6ccc7c(c6)OCO7)nc5CC[C@]4(C)[C@H]3CC[C@@]21C | 2.96 | 10
29 | O=C(Nc1cc(C(F)(F)F)cc(C(F)(F)F)c1)Nc1ccc(OCc2nnc(-c3ccc(Cl)cc3)o2)c(F)c1 | 1 | 4.17
30 | C[C@@H]1CC[C@@H]2[C@@H]1[C@H](OC(=O)c1ccc3ccccc3c1)[C@]1(C3CCCCC3)C[C@@H](OC(=O)CO)[C@@]2(C)O1 | 10.7 | 26.2
31 | NS(=O)(=O)c1cccc(Nc2nc(SCC(=O)c3ccc([N+](=O)[O-])cc3)nc3ccccc23)c1 | 15.6 | 43.4
32 | Clc1ccc(N/N=C(\c2ccccc2)c2ccccn2)nc1 | 0.0313 | 0.316
33 | O=C(Nc1nc(-c2ccccc2)cs1)c1cc(O)c(O)c(O)c1 | 2.46 | 12.7
34 | Cc1ccc(NC(=O)N2CCCCC2)cc1[N+](=O)[O-] | > 100 | > 100
35 | O=C1Nc2ccc(CN3CCOC3=O)cc2/C1=C/c1cc(CN2CCOCC2)c[nH]1 | 20.7 | 73.3
36 | CC(=O)N1N=C(c2ccc(Nc3nc(Nc4ccc(F)cc4)nc(Nc4ccc(Cl)cc4)n3)cc2)CC1c1ccc(N(C)C)cc1 (stereo unspecified) | 5.61 | 33.8
37 | CN(C)c1cccc(/C=C(\C#N)c2ccccc2)c1 | 0.402 | 36.8
38 | NC(=S)N/N=C/c1ccc(OC(=O)COc2ccccc2)cn1 | 2.31 | 7.33

— PubChem BioAssay (NCI)
